Measurements taken from US7271170B2, “Imidazo-pyrimidines and triazolo-pyrimidines: benzodiazepine receptor ligands” (Neurogen Corporation, priority 2003, dated 2007).

biological target: benzodiazepine site of the GABAA receptor; assay: Ligand binding assay of Example 6 (3H-Ro15-1788 competition, purified rat cortical membranes); details: ligand binding assay of Example 6; Table 5 Ki

SMILES	Ki
CCc1nc2c(CC)c(Cn3ccnc3-c3cc(F)ccc3C)ncn2n1 [Compound 219, 2,8-Diethyl-7-[2-(5-fluoro-2-methyl-phenyl)-imidazol-1-ylmethyl]-[1,2,4]triazolo[1,5-c]pyrimidine]	< 1000 nM
COCc1c(Cn2ccnc2-c2ncccc2F)ncn2nc(C)nc12 [Compound 220, 7-[2-(3-Fluoro-pyridin-2-yl)-imidazol-1-ylmethyl]-8-methoxymethyl-2-methyl-[1,2,4]triazolo[1,5-c]pyrimidine]	< 1000 nM
CCC(O)c1c(Cn2ccnc2-c2ncccc2F)ncn2nc(C)nc12 (stereo not shown) [Compound 222, 1-{7-[2-(3-Fluoro-pyridin-2-yl)-imidazol-1-ylmethyl]-2-methyl-[1,2,4]triazolo[1,5-c]pyrimidin-8-yl}-propan-1-ol]	< 1000 nM
C/C=C/c1c(Cn2ccnc2-c2ncccc2F)ncn2nc(C)nc12 [Compound 224, 7-[2-(3-Fluoro-pyridin-2-yl)-imidazol-1-ylmethyl]-2-methyl-8-propenyl-[1,2,4]triazolo[1,5-c]pyrimidine]	< 1000 nM
CCCc1c(Cn2ccnc2-c2ncccc2F)ncn2nc(-c3cccnc3)nc12 [Compound 225, 7-[2-(3-Fluoro-pyridin-2-yl)-imidazol-1-ylmethyl]-8-propyl-2-pyridin-3-yl-[1,2,4]triazolo[1,5-c]pyrimidine]	< 1000 nM
Cc1nc2c(CCCOCc3ccccc3)c(Cn3ccnc3-c3ncccc3F)ncn2n1 [Compound 226, 8-(3-Benzyloxy-propyl)-7-[2-(3-fluoro-pyridin-2-yl)-imidazol-1-ylmethyl]-2-methyl[1,2,4]triazolo[1,5-c]pyrimidine]	< 1000 nM
Cc1nc2c(CCOCc3ccccc3)c(Cn3ccnc3-c3ncccc3F)ncn2n1 [Compound 227, 8-(2-Benzyloxy-ethyl)-7-[2-(3-fluoro-pyridin-2-yl)-imidazol-1-ylmethyl]-2-methyl-[1,2,4]triazolo[1,5-c]pyrimidine]	< 1000 nM
Cc1nc2c(CCCO)c(Cn3ccnc3-c3ncccc3F)ncn2n1 [Compound 228, 3-{7-[2-(3-Fluoro-pyridin-2-yl)-imidazol-1-ylmethyl]-2-methyl-[1,2,4]triazolo[1,5-c]pyrimidin-8-yl}-propan-1-ol]	< 1000 nM
Cc1nc2c(CCF)c(Cn3ccnc3-c3ncccc3F)ncn2n1 [Compound 229, 8-(2-Fluoro-ethyl)-7-[2-(3-fluoro-pyridin-2-yl)-imidazol-1-ylmethyl]-2-methyl-[1,2,4]triazolo[1,5-c]pyrimidine]	< 1000 nM
Cc1nc2c(CCCCl)c(Cn3ccnc3-c3ncccc3F)ncn2n1 [Compound 230, 8-(3-Chloro-propyl)-7-[2-(3-fluoro-pyridin-2-yl)-imidazol-1-ylmethyl]-2-methyl-[1,2,4]triazolo[1,5-c]pyrimidine]	< 1000 nM
Cc1nc2c(CCO)c(Cn3ccnc3-c3ncccc3F)ncn2n1 [Compound 231, 2-{7-[2-(3-Fluoro-pyridin-2-yl)-imidazol-1-ylmethyl]-2-methyl-[1,2,4]triazolo[1,5-c]pyrimidin-8-yl}-ethanol]	< 1000 nM
Cc1nc2c(CCCF)c(Cn3ccnc3-c3ncccc3F)ncn2n1 [Compound 232, 8-(3-Fluoro-propyl)-7-[2-(3-fluoro-pyridin-2-yl)-imidazol-1-ylmethyl]-2-methyl-[1,2,4]triazolo[1,5-c]pyrimidine]	< 1000 nM
FCCCc1c(Cn2ccnc2-c2ncccc2F)ncn2ncnc12 [Compound 233, 8-(3-Fluoro-propyl)-7-[2-(3-fluoro-pyridin-2-yl)-imidazol-1-ylmethyl]-[1,2,4]triazolo[1,5-c]pyrimidine]	< 1000 nM
CCc1c(Cn2ccnc2-c2ncccc2F)ncn2ncnc12 [Compound 234, 8-ethyl-7-{[2-(3-fluoropyridin-2-yl)-1H-imidazol-1-yl]methyl}[1,2,4]triazolo[1,5-c]pyrimidine]	< 1000 nM
CCCc1c(Cn2ccnc2-c2cccc(C(F)(F)F)n2)ncn2ncnc12 [Compound 235, 8-Propyl-7-[2-(6-trifluoromethyl-pyridin-2-yl)-imidazol-1-ylmethyl]-[1,2,4]triazolo[1,5-c]pyrimidine]	< 1000 nM
N#Cc1cccnc1-c1nccn1Cc1ncn2ncnc2c1CCCF [Compound 236, 2-{1-[8-(3-Fluoro-propyl)-[1,2,4]triazolo[1,5-c]pyrimidin-7-ylmethyl]-1H-imidazol-2-yl}-nicotinonitrile]	< 1000 nM
N#Cc1cccc(-c2nccn2Cc2ncn3ncnc3c2CCCF)n1 [Compound 237, 6-{1-[8-(3-Fluoro-propyl)-[1,2,4]triazolo[1,5-c]pyrimidin-7-ylmethyl]-1H-imidazol-2-yl}-pyridine-2-carbonitrile]	< 1000 nM
CCCc1c(Cn2ccnc2-c2ncccc2F)ncn2nc(C(N)=O)nc12 [Compound 239, 7-[2-(3-Fluoro-pyridin-2-yl)-imidazol-1-ylmethyl]-8-propyl-[1,2,4]triazolo[1,5-c]pyrimidine-2-carboxylic acidamide]	< 1000 nM
CCCc1c(Cn2ccnc2-c2ncccc2F)ncn2nc(C#N)nc12 [Compound 240, 7-[2-(3-Fluoro-pyridin-2-yl)-imidazol-1-ylmethyl]-8-propyl-[1,2,4]triazolo[1,5-c]pyrimidine-2-carbonitrile]	< 1000 nM
CCCc1c(Cn2cc(Cl)nc2-c2ncccc2F)ncn2ncnc12 [Compound 241, 7-[4-Chloro-2-(3-fluoro-pyridin-2-yl)-imidazol-1-ylmethyl]-8-propyl-[1,2,4]triazolo[1,5-c]pyrimidine]	< 1000 nM
CCCc1c(Cn2ccnc2-c2ncccc2C#N)ncn2nc(C)nc12 [Compound 242, 2-[1-(2-methyl-8-propyl-[1,2,4]triazolo[1,5-c]pyrimidin-7-ylmethyl)-1H-imidazol-2-yl]-nicotinonitrile]	< 1000 nM
CCOc1c(Cn2ccnc2-c2ncccc2F)ncn2nc(C)nc12 [Compound 243, 8-Ethoxy-7-[2-(3-fluoro-pyridin-2-yl)-imidazol-1-ylmethyl]-2-methyl-[1,2,4]triazolo[1,5-c]pyrimidine]	< 1000 nM
CCc1c(Cn2ccnc2-c2ncccc2F)ncn2nc(C)nc12 [Compound 244, 8-ethyl-7-{[2-(3-fluoropyridin-2-yl)-1H-imidazol-1-yl]methyl}-2-methyl[1,2,4]triazolo[1,5-c]pyrimidine]	< 1000 nM
CCOc1c(Cn2ccnc2-c2ncccc2F)ncn2ncnc12 [Compound 245, 8-ethoxy-7-{[2-(3-fluoropyridin-2-yl)-1H-imidazol-1-yl]methyl}[1,2,4]triazolo[1,5-c]pyrimidine]	< 1000 nM

Now from value to molecule:

Ki	SMILES
< 1000 nM	CCCc1c(Cn2ccnc2-c2cccc(F)n2)nc(C)n2nc(C)nc12 [Compound 217, 7-[2-(6-Fluoro-pyridin-2-yl)-imidazol-1-ylmethyl]-2,5-dimethyl-8-propyl-[1,2,4]triazolo[1,5-c]pyrimidine]
< 1000 nM	CCCc1c(Cn2ccnc2-c2cccc(F)n2)nc(C)n2nc(CC)nc12 [Compound 218, 2-Ethyl-7-[2-(6-fluoro-pyridin-2-yl)-imidazol-1-ylmethyl]-5-methyl-8-propyl-[1,2,4]triazolo[1,5-c]pyrimidine]
< 1000 nM	CCC(O)c1c(Cn2ccnc2-c2cccc(F)n2)ncn2nc(C)nc12 (stereo not shown) [Compound 221, 1-{7-[2-(6-Fluoro-pyridin-2-yl)-imidazol-1-ylmethyl]-2-methyl-[1,2,4]triazolo[1,5-c]pyrimidin-8-yl}-propan-1-ol]
< 1000 nM	CCCc1c(Cn2ccnc2-c2ncccc2F)ncn2nc(CO)nc12 [Compound 223, {7-[2-(3-Fluoro-pyridin-2-yl)-imidazol-1-ylmethyl]-8-propyl-[1,2,4]triazolo[1,5-c]pyrimidin-2-yl}-methanol]
< 1000 nM	CCCc1c(Cn2ccnc2-c2ncccc2F)ncn2nc(C(=O)OCC)nc12 [Compound 238, 7-[2-(3-Fluoro-pyridin-2-yl)-imidazol-1-ylmethyl]-8-propyl-[1,2,4]triazolo[1,5-c]pyrimidine-2-carboxylic acidethyl ester]
< 1000 nM	CCCc1c(Cn2ccnc2-c2ncccc2F)ncn2nc(OC)nc12 [Compound 246, 7-{[2-(3-fluoropyridin-2-yl)-1H-imidazol-1-yl]methyl}-2-methoxy-8-propyl[1,2,4]triazolo[1,5-c]pyrimidine]
< 1000 nM	CCCc1c(Cn2ccnc2-c2ncccc2F)ncn2nc(OCC)nc12 [Compound 247, 2-ethoxy-7-{[2-(3-fluoropyridin-2-yl)-1H-imidazol-1-yl]methyl}-8-propyl[1,2,4]triazolo[1,5-c]pyrimidine]
< 1000 nM	CCCc1c(Cn2ccnc2-c2ncccc2F)ncn2nc(N)nc12 [Compound 248, 7-{[2-(3-fluoropyridin-2-yl)-1H-imidazol-1-yl]methyl}-8-propyl[1,2,4]triazolo[1,5-c]pyrimidin-2-amine]
< 1000 nM	CCCc1c(Cn2ccnc2-c2ncccc2F)ncn2nc(C(C)(C)O)nc12 [Compound 249, 2-(7-{[2-(3-fluoropyridin-2-yl)-1H-imidazol-1-yl]methyl}-8-propyl[1,2,4]triazolo[1,5-c]pyrimidin-2-yl)propan-2-ol]
< 1000 nM	CCCc1c(Cn2ccnc2-c2cccc(F)n2)ncn2nc(COCC)nc12 [Compound 250, 2-(ethoxymethyl)-7-{[2-(6-fluoropyridin-2-yl)-1H-imidazol-1-yl]methyl}-8-propyl[1,2,4]triazolo[1,5-c]pyrimidine]
< 1000 nM	CCCc1c(Cn2ccnc2-c2ncccc2F)ncn2nc(C(=O)OC)nc12 [Compound 251, methyl 7-{[2-(3-fluoropyridin-2-yl)-1H-imidazol-1-yl]methyl}-8-propyl[1,2,4]triazolo[1,5-c]pyrimidine-2-carboxylate]
< 1000 nM	CCCc1c(Cn2ccnc2-c2cccc(F)n2)ncn2nc(C(C)(C)O)nc12 [Compound 252, 2-(7-{[2-(6-fluoropyridin-2-yl)-1H-imidazol-1-yl]methyl}-8-propyl[1,2,4]triazolo[1,5-c]pyrimidin-2-yl)propan-2-ol]
< 1000 nM	CCCc1c(Cn2ccnc2-c2cccc(C#N)n2)ncn2nc(COC)nc12 [Compound 253, 6-(1-{[2-(methoxymethyl)-8-propyl[1,2,4]triazolo[1,5-c]pyrimidin-7-yl]methyl}-1H-imidazol-2-yl)pyridine-2-carbonitrile]
